ChEMBL document CHEMBL1145789, “Benzoylalanine-derived ketoamides carrying vinylbenzyl amino residues: discovery of potent water-soluble calpain inhibitors with oral bioavailability” (J Med Chem, 2003)

Target: T1, Calpain-1 catalytic subunit (Homo sapiens, UniProt P07384)
T1 sequence (P07384 whole entry): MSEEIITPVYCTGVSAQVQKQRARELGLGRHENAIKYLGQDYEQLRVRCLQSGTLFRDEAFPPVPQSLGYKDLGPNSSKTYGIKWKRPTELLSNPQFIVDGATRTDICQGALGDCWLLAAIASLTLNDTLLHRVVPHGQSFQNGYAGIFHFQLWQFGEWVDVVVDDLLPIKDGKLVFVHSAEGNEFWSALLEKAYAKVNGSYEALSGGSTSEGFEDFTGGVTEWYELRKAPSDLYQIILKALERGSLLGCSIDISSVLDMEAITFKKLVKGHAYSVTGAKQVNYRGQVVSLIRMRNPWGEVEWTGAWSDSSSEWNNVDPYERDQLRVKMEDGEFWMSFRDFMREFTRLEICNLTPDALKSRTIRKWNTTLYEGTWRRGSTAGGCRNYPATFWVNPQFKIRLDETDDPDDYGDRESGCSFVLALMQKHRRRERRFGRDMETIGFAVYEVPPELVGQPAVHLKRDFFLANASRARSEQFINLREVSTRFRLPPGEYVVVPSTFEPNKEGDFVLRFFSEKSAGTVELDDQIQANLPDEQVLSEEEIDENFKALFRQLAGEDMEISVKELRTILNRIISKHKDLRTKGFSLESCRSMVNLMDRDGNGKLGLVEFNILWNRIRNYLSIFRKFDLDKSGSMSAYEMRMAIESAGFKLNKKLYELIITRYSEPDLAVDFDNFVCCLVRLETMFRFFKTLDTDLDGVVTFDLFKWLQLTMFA
Test: Inhibitory activity against human Calpain 1 isolated from erythrocytes
Type: cell-free

- Ki: 15 nM
SMILES: O=CC(Cc1ccccc1)NC(=O)c1ccccc1/C=C/c1cccc2ccccc12 (stereo unspecified)
